Measurements published in article PMC7481357, “N-terminal Myristoylation Enhanced the Antimicrobial Activity of Antimicrobial Peptide PMAP-36PW” (Frontiers in Cellular and Infection Microbiology, 2020).
Entries after “also recorded” stand apart in the source; their conditions may differ. Residues, ends and D or L forms follow the SMILES beside them. *: point of attachment. Myristoyl = CCCCCCCCCCCCCC(=O)*

Columns and labels:
[1] = test system: L. monocytogenes CICC 21634; type: cell-based, Listeria monocytogenes
Experimental: The MICs of Myr-36PW in vitro were measured through microdilution in accordance with the Clinical and Laboratory Standards Institute (CLSI, [2020]). The bacterial cells were cultured for 12 h at 37°C in the appropriate medium and then diluted to 1 × 10^6 CFU/mL. Equal volumes (100 μL) of bacterial cell suspension and two-fold serially diluted different concentrations peptides (0.0039–256 μg/mL) were added to each well of the sterile 96-well plate. The samples were incubated for 18 h at 37°C. After incubation, the MICs of the peptides were determined by evaluating the growth based on the OD600 of the cultures.

S. aureus ATCC 25923 [2] = assay: Peritonitis model; type: in vivo, BALB/c mice; settings: intraperitoneal 60 μL, 1 μg/μL, once a day for 3 days; for Liver pathogenic scores: compared with PBS group; for Liver pathogenic scores / Bacterial CFU in liver and spleen homogenate / Spleen pathogenic scores: n = 5
Experimental: The peritonitis model in vivo was generated by intraperitoneally injecting S. aureus ATCC 25923 (2.5 × 10^9 CFU/mL, 140 μL). Sixty mice were randomly divided into six groups of 10 members: those who received no infection and treatment was used as a blank control, those with […] administration of PBS (60 μL) as the negative control group, those administered with benzylpenicillin potassium (60 μL, 1 μg/μL) as the positive control group, and the remaining three groups corresponded to three antimicrobial peptide groups of Myr-36PW (60 μL, 1 μg/μL), PMAP-36PW (60 μL, 1 μg/μL), and PMAP-36 (60 μL, 1 μg/μL). After 4 h post-inoculation, treatment was initiated by intraperitoneal injection once a day for 3 days. The mice were sacrificed 24 h the treatment. Changes in the appearance of anatomical tissues were observed. The liver and spleen tissues were removed aseptically from the mice, and half of these samples were gently fixed in buffered formaldehyde solution for histopathological assessment by hematoxylin and eosin (H&E) staining. Pathological changes were scored to assess individual therapeutic status as described previously (Song et al., [2015]; Lei et al., [2018]). The remaining half of livers and spleens were added with 1 mL of PBS, homogenized, and serially diluted. Bacterial CFU counts were measured.
Figure 9 Therapeutic potency of peritonitis by Myr-36PW in vivo. The livers and spleens (n = 5) in each group were collected on day 4 after the intraperitoneal injection of S. aureus ATCC 25923. (A) Morphological changes in liver and spleen tissues. (B) Representative histopathological images of processed liver and spleen sections with hematoxylin and eosin (H&E) staining. Images are presented at a magnification of 40×. a: central venous hemorrhage. b: the cells fuse into pieces, and the nucleus dissolves and disappears. c: cytoplasmic cavitation. (C,D) Pathological scores of the liver and spleen sections. Scoring standard: 1 indicated no pathology, 2 indicated perivascular infiltrates, 3 indicated perivascular or interstitial infiltrates affecting <20% of the section, 4 indicated perivascular or interstitial infiltrates affecting 20–50% of the section, and 5 indicated perivascular or interstitial infiltrates affecting >50% of the section. (E,F) Bacterial CFU in liver and spleen homogenate. BP is benzylpenicillin potassium. Data represent the mean ± SD of five individual experiments.

S. aureus ATCC 25923 [3] = assay: Inhibition zone assay (disk diffusion); type: cell-based, Staphylococcus aureus; set-up: key: +, means the peptide has antibacterial activity; settings: disk 10 μg peptide, 18 h at 37°C, * P < 0.05, ** P < 0.01 vs PMAP-36PW
Experimental: The inhibition zone assay was performed through the disk diffusion to evaluate the antimicrobial activity of Myr-36PW in vitro (Dunne et al., [2017]). The four above-mentioned bacterial strains were used as experimental strains, with L. monocytogenes CICC 21634 cultured in BHI medium, and P. aeruginosa GIM 1.551 cultured in TSB medium. The bacterial cells were cultured for 12 h at 37°C in the appropriate medium, and the bacterial cell suspension was spread on LB agar. The disks containing 10 μg of peptides (1 μg/μL) were attached to the solid medium and incubated at 37°C for 18 h. Finally the diameter of the inhibition zone was measured.

[4] = Self-assembly of the peptide; type: physicochemical; settings: stated in discussion, method not given
P. aeruginosa GIM 1.551 = assay: Subcutaneous abscess model; type: in vivo, BALB/c mice; settings: injected 20 μL, 1 μg/μL, once a day for 3 days
Experimental: A subcutaneous abscess model in vivo was established as previously reported (Zhao et al., [2019]). The mouse dorsal region with 3.0 cm diameter was treated with hair pusher. A total of 120 mice were randomly divided into two experimental models, one was challenged with S. aureus ATCC 25923 (2.5 × 10^8 CFU/mL, 60 μL), and the other was challenged with P. aeruginosa GIM 1.551 (3.0 × 10^8 CFU/mL, 60 μL). In the S. aureus ATCC 25923 model, 60 mice were divided into six groups of 10 members. The mice with no infection and treatment was used as a blank control, those directly injected with PBS (20 μL) as the negative control group, those injected with benzylpenicillin potassium (20 μL, 1 μg/μL) as the positive control group, and the remaining three groups as the treatment groups injected with Myr-36PW (20 μL, 1 μg/μL), PMAP-36PW (20 μL, 1 μg/μL), and PMAP-36 (20 μL, 1 μg/μL). The procedure in P. aeruginosa GIM 1.551 model is the same as that in S. aureus ATCC 25923 model, except for the use of ampicillin sodium as a positive control. Treatment once a day for 3 days was initiated when the mice developed prominent pustules on their backs. A day after the treatment, the size of the abscess was observed, and its tissues were excised, homogenized, and serially diluted. Bacteria CFU counts were calculated.
Figure 10 Treatment efficacy of subcutaneous abscess by Myr-36PW in vivo. Mice were injected with S. aureus ATCC 25923 or P. aeruginosa GIM 1.551 to develop a subcutaneous abscess before treatment. (A) Changes in the abscess area of mice after 3 days treatment. (B,C) Quantitative analysis of bacterial CFU in abscess area that received 3 days treatment under various experimental conditions. The number of CFU in each treatment group was normalized by using the CFU of the experimental group divided by the CFU of the PBS group (100%). BP is benzylpenicillin potassium, AS is ampicillin sodium. Data represent the mean ± SD of five individual experiments. *P < 0.05 and **P < 0.01, compared with PBS. ^#P < 0.05 and ^##P < 0.01, compared with PMAP-36PW.

MICs of different classes of antibiotics ([1]; L. monocytogenes CICC 21634, * indicates resistant (CLSI, 2020)) [µg/mL]	SMILES	Liver and spleen histopathology (H&E) (S. aureus ATCC 25923 [2])	Liver pathogenic scores (S. aureus ATCC 25923 [2])	Bacterial CFU in liver and spleen homogenate (S. aureus ATCC 25923 [2])	Spleen pathogenic scores (S. aureus ATCC 25923 [2])	In vitro antibacterial activity (disk diffusion) (S. aureus ATCC 25923 [3])	MICs ([1]; CICC 21634, 18 h) [µg/mL]	Self-assembly [4]	Abscess area (P. aeruginosa GIM 1.551)	Bacterial CFU in abscess area (P. aeruginosa GIM 1.551; vs PMAP-36PW: Myr-36PW P < 0.05, ampicillin sodium P < 0.01, n = 5)
64	CC1(C)S[C@@H]2[C@H](NC(=O)Cc3ccccc3)C(=O)N2[C@H]1C(=O)O [Benzylpenicillin potassium]	the liver cells of mice were neatly arranged with clear cell boundaries and no pathological changes in spleen tissues	significantly lower than PBS group (P < 0.01)	significantly decreased compared with that of PMAP-36PW group (P < 0.05)	displayed significant difference (P < 0.01); also recorded: lower than those for PMAP-36PW group (P < 0.05)	–	–	–	–	–
–	CCCCCCCCCCCCCC(=O)NCC(=O)NCC(=O)N[C@@H](CCCNC(=N)N)C(=O)N[C@@H](Cc1ccccc1)C(=O)N[C@@H](CCCNC(=N)N)C(=O)N[C@@H](CCCNC(=N)N)C(=O)N[C@@H](CC(C)C)C(=O)N[C@@H](CCCNC(=N)N)C(=O)N[C@@H](CCCCN)C(=O)N[C@@H](CCCCN)C(=O)N[C@H](C(=O)N[C@@H](CCCNC(=N)N)C(=O)N[C@@H](CCCCN)C(=O)N[C@@H](CCCNC(=N)N)C(=O)N[C@@H](CC(C)C)C(=O)N[C@@H](CCCCN)C(=O)N[C@@H](CCCCN)C(=O)N[C@H](C(=O)NCC(=O)N[C@@H](CCCCN)C(=O)N[C@H](C(=O)N[C@@H](CC(C)C)C(=O)N[C@@H](CCCCN)C(=O)N[C@@H](Cc1c[nH]c2ccccc12)C(=O)N[C@H](C(=O)N[C@@H](Cc1c[nH]c2ccccc12)C(=O)N[C@@H](Cc1c[nH]c2ccccc12)C(=O)N[C@H](C(=O)N[C@H](C(=O)NCC(=O)N[C@@H](CO)C(=O)N[C@H](C(=O)N1CCC[C@H]1C(=O)N[C@@H](CC(C)C)C(=O)NCC(=O)N[C@@H](CS)C(=O)NCC(=O)O)[C@@H](C)CC)C(C)C)[C@@H](C)CC)[C@@H](C)CC)C(C)C)[C@@H](C)CC)[C@@H](C)O [Myr-36PW] (Myristoyl-GGRFRRLRKKTRKRLKKIGKVLKWIWWIVGSIPLGCG-OH; C-terminus assumed)	the liver cells of mice were neatly arranged with clear cell boundaries and no pathological changes in spleen tissues	significantly lower than PBS group (P < 0.01)	significantly decreased compared with that of PMAP-36PW group (P < 0.05)	displayed significant difference (P < 0.01); also recorded: lower than those for PMAP-36PW group (P < 0.05)	+**	0.5	not self-assembly	significantly reduced the abscess area and effectively suppressed its growth	significant difference compared with that of PBS group (P < 0.01); also recorded: lower than that of PMAP-36PW group
